Measurements reported in PubChem BioAssay AID2060501 (Molecular Pharmacology Branch, DTP, NCI, 2025).
pIC50: −log10 of the molar value. “And” between values parts separate entries of the source, which are not always exact repeats. Identical values can stand only once. Blank lines part the entries; values can stand above or below the compound they belong to.

Test system: 282377-053-R-J1-PDC complex spheroids, viability
Assay: Anticancer human tumor 282377-053-R-J1-PDC patient-derived colon adenocarcinoma cell line growth inhibition [GQUAD]
Conditions: for viability, T/C: stronger effect = lower value
From the text: DNA G-quadruplex Stabilizer Agents in Combinations in Complex Spheroids
A high-throughput screen of multi-cell type tumor spheroids was designed to identify active combinations of DNA G-quadruplex stabilizer agents and targeted small molecules. Complex spheroids include a stromal component modeled by human endothelial cells (HUVEC) and fibroblasts modeled by human mesenchymal stem cells (MSCs). The concentration ranges selected for each drug and investigational agent were based upon clinically achievable concentrations if the clinical Cmax of the agent was known.
Compounds. The drugs and investigational agents: pidnarulex (CX-5461; NSC782164), APTO-253 (NSC789042), BRACO-19 (NSC847499), peposertib (NSC802822), ceralasertib (NSC780249), elimusertib (NSC800525), camonsertib (NSC841442), AZD-1390 (NSC803789), olaparib (NSC753686), talazoparib (NSC767125), ART-558 (NSC835418), sotorasib (NSC818433), MRTX-1133 (NSC836407), SN-38 (NSC673596), topotecan (NSC609699), etoposide (NSC141540), doxorubicin (NSC123127), gemcitabine (NSC613327), 5-fluorouracil (NSC19893), paclitaxel (NSC125973), vemurafenib (NSC761431), panobinostat (NSC761190), R-306465 (JNJ-16241199; NSC773264), adavosertib (NSC754352), TP-3654 (NSC805149), carboplatin (NSC241240), KSQ-4279 (NSC840948), and staurosporine (NSC755774) were obtained from the National Cancer Institute (NCI) Developmental Therapeutics Program Chemical Repository (34). The FDA-approved anticancer drug set is available from the NCI Developmental Therapeutics Program. […] The stock solutions were prepared in dimethyl sulfoxide (DMSO, Sigma-Aldrich, St. Louis, MO, cat. D2650) at 800-fold the tested concentration and stored at -70 degrees C prior to their use. All drugs and investigational agents were tested over a range starting from a high concentration at or near the clinical Cmax and decreasing in half-log increments. If the clinical Cmax for an agent had not been determined, the highest concentration tested was 10 microM.
2.3 Cell Culture. All cells were maintained in an incubator at 37 degrees C and 5% CO2 with 95% humidity. The PDC lines were cultured according to standard operating procedures established by the NCI PDMR. All PDCs were thawed and cultured in Matrigel-coated flasks prepared with a working solution of 1X Ham's F-12 nutrient mix, without supplementation (Invitrogen, cat. 11765054), 100 U/mL penicillin-streptomycin (Invitrogen, cat. 15140122), and 2.5% Matrigel (Corning Inc., cat. 354248) for the first three passages. The 857933-349-R-J2-PDC line was cultured in 6C/Colon 1B media, which includes advanced DMEM/F-12 (Thermo Fisher Scientific, cat. 12634028), 10 mM HEPES (Thermo Fisher Scientific, cat. 15630080), 1X GlutaMAX supplement (Thermo Fisher Scientific, cat. 35050061), 0.1 mg/mL primocin (InvivoGen, cat. ant-pm-2), 10% defined fetal bovine serum, heat inactivated (HyClone Laboratories Inc., cat. SH30070.03HI), 50% L-WRN conditioned media (ATCC, cat. CRL-3276), 1.25 mM N-Acetyl-L-cysteine (Sigma-Aldrich, cat. A9165), 10 mM nicotinamide (Sigma-Aldrich, cat. N0636), 1X B-27 supplement (Thermo Fisher Scientific, cat. 17504044), 1X N-2 supplement (Thermo Fisher Scientific, cat. 17502048), 10 microM Y-27632 dihydrochloride (Tocris Bioscience, cat. 1254), and 50 ng/mL human EGF recombinant protein (Thermo Fisher Scientific, cat. PHG0311). The 485176-168-R4-J1-PDC line was cultured in Panc media, which includes all 6C/Colon 1B media components plus 100 ng/mL human FGF-10 (Thermo Fisher Scientific, cat. 100-26), 500 nM SB-431542 (Selleckchem, cat. S1067), and gastrin (Tocris, cat. 3006).
[…]

[1] = curve of first compound, second compound 0.0316 µM
[2] = curve of first compound, second compound 0.1 µM
[3] = curve of first compound, second compound 0.316 µM
[4] = curve of first compound, second compound 1 µM
[5] = curve of first compound, second compound 3.16 µM
[6] = curve of first compound, second compound 10 µM
[7] = second compound 0.0316 µM, first compound 0.0316 µM
[8] = second compound 0.0316 µM, first compound 0.316 µM
[9] = second compound 0.1 µM, first compound 0.0316 µM
[10] = second compound 0.1 µM, first compound 0.316 µM
[11] = second compound 0.316 µM, first compound 0.0316 µM
[12] = second compound 0.316 µM, first compound 0.316 µM
[13] = second compound 1 µM, first compound 0.0316 µM
[14] = second compound 1 µM, first compound 0.316 µM
[15] = second compound 3.16 µM, first compound 0.0316 µM
[16] = second compound 3.16 µM, first compound 0.316 µM
[17] = second compound 10 µM, first compound 0.0316 µM
[18] = second compound 10 µM, first compound 0.316 µM
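Also: spheroids exposed to compounds for 7 days before readout.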
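For viability, T/C in this document: percent of vehicle DMSO control viability with 100% = untreated-like growth.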

- pIC50 [1]: 6.87
- pIC50 [2]: 7.13
- pIC50 [3]: > 7.50
- pIC50 [4]: > 7.50
- pIC50 [5]: > 7.50
- pIC50 [6]: > 7.50
Structure (SMILES): CC1COCCN1c1cc(C2(O)CC3CCC(C2)O3)c2cnn(-c3ccn[nH]3)c2n1 (stereo unspecified) + Cc1cnc(CNC(=O)c2c(=O)c3ccc(N4CCCN(C)CC4)nc3n3c2sc2ccccc23)cn1
- viability, T/C [7]: 96.4%
- viability, T/C (second compound 0.0316 µM, first compound 0.1 µM): 49.5%
- viability, T/C [8]: 39.7%
- viability, T/C (second compound 0.0316 µM, first compound 1 µM): 24.6%
- viability, T/C (second compound 0.0316 µM, first compound 3.16 µM): 20.5%
- viability, T/C (second compound 0.0316 µM, first compound 10 µM): 12.6%
- viability, T/C [9]: 71.9%
- viability, T/C (second compound 0.1 µM, first compound 0.1 µM): 41.3%
- viability, T/C [10]: 27.6%
- viability, T/C (second compound 0.1 µM, first compound 1 µM): 26.8%
- viability, T/C (second compound 0.1 µM, first compound 3.16 µM): 21.8%
- viability, T/C (second compound 0.1 µM, first compound 10 µM): 15.1%
- viability, T/C [11]: 50.1%
- viability, T/C (second compound 0.316 µM, first compound 0.1 µM): 34.8%
- viability, T/C [12]: 28.8%
- viability, T/C (second compound 0.316 µM, first compound 1 µM): 22.9%
- viability, T/C (second compound 0.316 µM, first compound 3.16 µM): 17.7%
- viability, T/C (second compound 0.316 µM, first compound 10 µM): 15%
- viability, T/C [13]: 42%
- viability, T/C (second compound 1 µM, first compound 0.1 µM): 25.9%
- viability, T/C [14]: 28.7%
- viability, T/C (second compound 1 µM, first compound 1 µM): 23.1%
- viability, T/C (second compound 1 µM, first compound 3.16 µM): 21.8%
- viability, T/C (second compound 1 µM, first compound 10 µM): 14.3%
- viability, T/C [15]: 33.6%
- viability, T/C (second compound 3.16 µM, first compound 0.1 µM): 23.4%
- viability, T/C [16]: 23.8%
- viability, T/C (second compound 3.16 µM, first compound 1 µM): 21.7%
- viability, T/C (second compound 3.16 µM, first compound 3.16 µM): 18.6%
- viability, T/C (second compound 3.16 µM, first compound 10 µM): 10.6%
- viability, T/C [17]: 32.8%
- viability, T/C (second compound 10 µM, first compound 0.1 µM): 20.1%
- viability, T/C [18]: 22.2%
- viability, T/C (second compound 10 µM, first compound 1 µM): 18%
- viability, T/C (second compound 10 µM, first compound 3.16 µM): 17%
- viability, T/C (second compound 10 µM, first compound 10 µM): 0.6%

- pIC50 (curve of compound): 7.42 and 6.75 and 7.26
Structure (SMILES): CCc1c2c(nc3ccc(O)cc13)-c1cc3c(c(=O)n1C2)COC(=O)[C@]3(O)CC
- viability, T/C (compound 0.000999 µM): 87.9% and 100% and 111%
- viability, T/C (compound 0.00316 µM): 81.8% and 80.9% and 91%
- viability, T/C (compound 0.00999 µM): 67.7% and 93.2% and 67%
- viability, T/C (compound 0.0316 µM): 50.7% and 73% and 63.6%
- viability, T/C (compound 0.0999 µM): 40.8% and 61.3% and 40.1%
- viability, T/C (compound 0.316 µM): 29.2% and 39% and 30.2%

Structure (SMILES): Cc1[nH]c2ccccc2c1CCNCc1ccc(/C=C/C(=O)NO)cc1 + CN(C)c1ccc(Nc2c3ccc(NC(=O)CCN4CCCC4)cc3nc3cc(NC(=O)CCN4CCCC4)ccc23)cc1
- pIC50 [1]: 6.72
- pIC50 [2]: 6.72
- pIC50 [3]: 6.75
- pIC50 [4]: 6.72
- pIC50 [5]: 6.76
- pIC50 [6]: 6.83
- viability, T/C (second compound 0.0316 µM, first compound 0.000999 µM): 106%
- viability, T/C (second compound 0.0316 µM, first compound 0.00316 µM): 91.1%
- viability, T/C (second compound 0.0316 µM, first compound 0.00999 µM): 109%
- viability, T/C [7]: 110%
- viability, T/C (second compound 0.0316 µM, first compound 0.0999 µM): 106%
- viability, T/C [8]: 6.18%
- viability, T/C (second compound 0.1 µM, first compound 0.000999 µM): 97.3%
- viability, T/C (second compound 0.1 µM, first compound 0.00316 µM): 108%
- viability, T/C (second compound 0.1 µM, first compound 0.00999 µM): 114%
- viability, T/C [9]: 89.3%
- viability, T/C (second compound 0.1 µM, first compound 0.0999 µM): 105%
- viability, T/C [10]: 7.41%
- viability, T/C (second compound 0.316 µM, first compound 0.000999 µM): 91.8%
- viability, T/C (second compound 0.316 µM, first compound 0.00316 µM): 86.4%
- viability, T/C (second compound 0.316 µM, first compound 0.00999 µM): 91.4%
- viability, T/C [11]: 116%
- viability, T/C (second compound 0.316 µM, first compound 0.0999 µM): 99.6%
- viability, T/C [12]: 3.85%
- viability, T/C (second compound 1 µM, first compound 0.000999 µM): 90.2%
- viability, T/C (second compound 1 µM, first compound 0.00316 µM): 98.5%
- viability, T/C (second compound 1 µM, first compound 0.00999 µM): 108%
- viability, T/C [13]: 121%
- viability, T/C (second compound 1 µM, first compound 0.0999 µM): 103%
- viability, T/C [14]: 7.41%
- viability, T/C (second compound 3.16 µM, first compound 0.000999 µM): 92.9%
- viability, T/C (second compound 3.16 µM, first compound 0.00316 µM): 95.1%
- viability, T/C (second compound 3.16 µM, first compound 0.00999 µM): 101%
- viability, T/C [15]: 123%
- viability, T/C (second compound 3.16 µM, first compound 0.0999 µM): 89.8%
- viability, T/C [16]: 6.57%
- viability, T/C (second compound 10 µM, first compound 0.000999 µM): 78.5%
- viability, T/C (second compound 10 µM, first compound 0.00316 µM): 103%
- viability, T/C (second compound 10 µM, first compound 0.00999 µM): 94.6%
- viability, T/C [17]: 92.8%
- viability, T/C (second compound 10 µM, first compound 0.0999 µM): 73.6%
- viability, T/C [18]: 3.92%
